This passage reports inhibition and IC50 results from patent publication US10544106B2, “Certain chemical entities, compositions, and methods” (NeuPharma, Inc., priority 2016, dated 2020).

Sequence of BTK (Q06187 whole entry): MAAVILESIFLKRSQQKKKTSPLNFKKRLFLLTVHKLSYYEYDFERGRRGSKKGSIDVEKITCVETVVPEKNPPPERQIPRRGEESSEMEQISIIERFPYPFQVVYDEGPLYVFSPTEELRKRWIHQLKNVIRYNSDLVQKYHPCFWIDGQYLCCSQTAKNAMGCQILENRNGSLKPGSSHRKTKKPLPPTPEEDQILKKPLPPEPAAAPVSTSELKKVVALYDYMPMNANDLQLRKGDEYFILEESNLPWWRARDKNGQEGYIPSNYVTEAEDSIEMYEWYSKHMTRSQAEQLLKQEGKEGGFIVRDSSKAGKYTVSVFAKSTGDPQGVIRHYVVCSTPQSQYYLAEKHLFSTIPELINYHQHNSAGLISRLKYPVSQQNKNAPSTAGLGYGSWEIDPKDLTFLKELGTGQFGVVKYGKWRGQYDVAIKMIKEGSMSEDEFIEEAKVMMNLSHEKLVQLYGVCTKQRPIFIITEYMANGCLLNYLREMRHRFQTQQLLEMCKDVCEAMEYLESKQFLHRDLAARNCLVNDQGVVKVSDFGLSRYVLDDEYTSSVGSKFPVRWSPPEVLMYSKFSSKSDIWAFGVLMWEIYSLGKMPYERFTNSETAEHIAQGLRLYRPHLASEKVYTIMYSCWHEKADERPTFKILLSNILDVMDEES

The first assay addresses BTK (Homo sapiens (Human), UniProt Q06187). Briefly: Z'-LYTE kinase inhibition assay against BTK. The class given is biochemical. As to conditions: compound at 100 nM; ATP concentration at Km. In short, it runs like this: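 Z′-LYTE FRET readout: 1.04-10.4 ng BTK with 2 μM Tyr 01 peptide, ATP at Km, in 50 mM HEPES pH 7.5, 10 mM MgCl2, 1 mM EGTA, 0.01% BRIJ-35, 1% DMSO. 60 min kinase reaction at room temperature, then 60 min development; IC50 from 10-point, 3-fold titrations.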
With `C=CC(=O)Nc1cccc(-c2cc(-c3ccc(C(=O)Nc4cc(C(N)=O)ccn4)cc3Cl)cc3cncnc23)c1` [C134, 2-(4-(8-(3-acrylamidophenyl)quinazolin-6-yl)-3-chlorobenzamido)isonicotinamide], the inhibition (in general, the percentage by which the read-out fell short of the control) at 0.1 µM is more than 50%.
`C=CC(=O)N1CCC(c2cc(-c3ccc(C(=O)Nc4cc(C(F)(F)F)ccn4)cc3)n3cnccc23)C1` (stereo not drawn) [C136, 4-(5-(1-acryloylpyrrolidin-3-yl)pyrrolo[1,2-c]pyrimidin-7-yl)-N-(4-(trifluoromethyl)pyridin-2-yl)benzamide] returned an inhibition at 0.1 µM of more than 50%.
For `C=CC(=O)Nc1cccc(-c2cc(-c3ccc(C(=O)Nc4cc(C(F)(F)F)ccn4)cc3)cc3cncnc23)c1` [C137, 4-(8-(3-acrylamidophenyl)quinazolin-6-yl)-N-(4-(trifluoromethyl)pyridin-2-yl)benzamide], the inhibition at 0.1 µM is more than 50%.
Consider `C=CC(=O)Nc1cccc(-c2cc(-c3ccc(C(=O)Nc4cc(C(N)=O)ccn4)cc3)cc3cncnc23)c1` [C138, 2-(4-(8-(3-acrylamidophenyl)quinazolin-6-yl)benzamido)isonicotinamide], for which the inhibition at 0.1 µM is less than 50%.
Same read-out and setting: the same measure for `C=CC(=O)Nc1cccc(-c2cc(-c3ccc(C(=O)Nc4cc(C5CC5)ccn4)c(OC)c3)cc3cncnc23)c1` [C140, 4-(8-(3-acrylamidophenyl)quinazolin-6-yl)-N-(4-cyclopropylpyridin-2-yl)-2-methoxybenzamide]: less than 50%; for `C=CC(=O)Nc1cccc(-c2cc(-c3ccc(C(=O)Nc4ccccn4)c(OC)c3)cc3cncnc23)c1` [C141, 4-(8-(3-acrylamidophenyl)quinazolin-6-yl)-2-methoxy-N-(pyridin-2-yl)benzamide]: less than 50%.
The same measure, in the same setting: for `C=CC(=O)N1CCC(c2cc(-c3ccc(C(=O)Nc4ccc(C(F)(F)F)cn4)cc3)cc3cncnc23)C1` (stereo not drawn) [C142, 4-(8-(1-acryloylpyrrolidin-3-yl)quinazolin-6-yl)-N-(5-(trifluoromethyl)pyridin-2-yl)benzamide] the value was less than 50%; for `C=CC(=O)N1CCC(c2cc(-c3ccc(Oc4cc(C(F)(F)F)ccn4)cc3)n3cnccc23)C1` (stereo not drawn) [C143, 1-(3-(7-(4-((4-(trifluoromethyl)pyridin-2-yl)oxy)phenyl)pyrrolo[1,2-c]pyrimidin-5-yl)pyrrolidin-1-yl)prop-2-en-1-one], less than 50%; for `C=CC(=O)N1CCC(c2cc(-c3ccc(Oc4ccccn4)cc3F)cc3cnc(N)nc23)C1` (stereo not drawn) [C144, 1-(3-(2-amino-6-(2-fluoro-4-(pyridin-2-yloxy)phenyl)quinazolin-8-yl)pyrrolidin-1-yl)prop-2-en-1-one], less than 50%.
On the same count and under the same terms, for `C=CC(=O)Nc1cccc(-c2cc(-c3ccc(C(=O)Nc4cc(C(F)(F)F)ccn4)c(OC)c3)cc3cncnc23)c1` [C145, 4-(8-(3-acrylamidophenyl)quinazolin-6-yl)-2-methoxy-N-(4-(trifluoromethyl)pyridin-2-yl)benzamide] the value was less than 50%; for `C=CC(=O)N1CCC(c2cc(-c3ccc(Oc4ccccn4)c(OC)c3)cc3cncnc23)C1` (stereo not drawn) [C146, 1-(3-(6-(3-methoxy-4-(pyridin-2-yloxy)phenyl)quinazolin-8-yl)pyrrolidin-1-yl)prop-2-en-1-one], less than 50%.
For `C=CC(=O)N1CCC(c2cc(-c3ccc(C(=O)Nc4ccnnc4)cc3)cc3cncnc23)C1` (stereo not drawn) [C147, 4-(8-(1-acryloylpyrrolidin-3-yl)quinazolin-6-yl)-N-(pyridazin-4-yl)benzamide], the inhibition at 0.1 µM is less than 50%.
Same read-out and setting: the same measure for `C=CC(=O)N1CCC(c2cc(-c3ccc(C(=O)Nc4cc(OC)ccn4)c(F)c3)n3cnccc23)C1` (stereo not drawn) [C148, 4-(5-(1-acryloylpyrrolidin-3-yl)pyrrolo[1,2-c]pyrimidin-7-yl)-2-fluoro-N-(4-methoxypyridin-2-yl)benzamide]: less than 50%; for `C=CC(=O)N1CCC(c2cc(-c3ccc(C(=O)Nc4cc(C5CC5)ccn4)cc3F)n3cnccc23)C1` (stereo not drawn) [C149, 4-(5-(1-acryloylpyrrolidin-3-yl)pyrrolo[1,2-c]pyrimidin-7-yl)-N-(4-cyclopropylpyridin-2-yl)-3-fluorobenzamide]: less than 50%.
The same measure, in the same setting: for `C=CC(=O)N1CCC(c2cc(-c3ccc(C(=O)Nc4cc(OC)ccn4)cc3F)n3cnccc23)C1` (stereo not drawn) [C150, 4-(5-(1-acryloylpyrrolidin-3-yl)pyrrolo[1,2-c]pyrimidin-7-yl)-3-fluoro-N-(4-methoxypyridin-2-yl)benzamide] the value was less than 50%; for `C=CC(=O)N1CCC(c2cc(-c3ccc(C(=O)Nc4cc(C#N)ccn4)cc3F)n3cnccc23)C1` (stereo not drawn) [C151, 4-(5-(1-acryloylpyrrolidin-3-yl)pyrrolo[1,2-c]pyrimidin-7-yl)-N-(4-cyanopyridin-2-yl)-3-fluorobenzamide], less than 50%.
The same measure, in the same setting: for `C=CC(=O)N1CCC(c2cc(-c3ccc(C(=O)Nc4cc(C(F)(F)F)ccn4)c(F)c3)n3cnccc23)C1` (stereo not drawn) [C152, 4-(5-(1-acryloylpyrrolidin-3-yl)pyrrolo[1,2-c]pyrimidin-7-yl)-2-fluoro-N-(4-(trifluoro-methyl)pyridin-2-yl)benzamide] the value was less than 50%; for `C=CC(=O)Nc1cccc(-c2cc(-c3ccc(C(=O)Nc4cc(C5CC5)ccn4)cc3F)cc3cncnc23)c1` [C153, 4-(8-(3-acrylamidophenyl)quinazolin-6-yl)-N-(4-cyclopropylpyridin-2-yl)-3-fluorobenzamide], more than 50%.
The molecule `C=CC(=O)Nc1cccc(-c2cc(-c3ccc(C(=O)Nc4cc(C#N)ccn4)cc3F)cc3cncnc23)c1` [C154, 4-(8-(3-acrylamidophenyl)quinazolin-6-yl)-N-(4-cyanopyridin-2-yl)-3-fluorobenzamide] returned an inhibition at 0.1 µM of more than 50%.
On the same count and under the same terms, for `C=CC(=O)N1CCC(c2cc(-c3ccc(C(=O)Nc4ccncc4)cc3)cc3cncnc23)C1` (stereo not drawn) [C155, 4-(8-(1-acryloylpyrrolidin-3-yl)quinazolin-6-yl)-N-(pyridin-4-yl)benzamide] the value was less than 50%; for `C=CC(=O)Nc1cccc(-c2cc(-c3ccc(C(=O)Nc4cc(C#N)ccn4)c(OC)c3)cc3cncnc23)c1` [C156, 4-(8-(3-acrylamidophenyl)quinazolin-6-yl)-N-(4-cyanopyridin-2-yl)-2-methoxybenzamide], less than 50%; for `C=CC(=O)Nc1cccc(-c2cc(-c3ccc(Oc4ccccn4)cc3F)cc3cnc(N)nc23)c1` [C157, N-(3-(2-amino-6-(2-fluoro-4-(pyridin-2-yloxy)phenyl)quinazolin-8-yl)phenyl)acrylamide], more than 50%.
On the same count and under the same terms, for `C=CC(=O)Nc1cccc(-c2cc(-c3ccc(Oc4ccccn4)c(F)c3)cc3cnc(N)nc23)c1` [C158, N-(3-(2-amino-6-(3-fluoro-4-(pyridin-2-yloxy)phenyl)quinazolin-8-yl)phenyl)acrylamide] the value was more than 50%; for `C=CC(=O)N1CCC(c2cc(-c3ccc(Oc4ccccn4)cc3F)n3cnccc23)C1` (stereo not drawn) [C159, 1-(3-(7-(2-fluoro-4-(pyridin-2-yloxy)phenyl)pyrrolo[1,2-c]pyrimidin-5-yl)pyrrolidin-1-yl)prop-2-en-1-one], less than 50%; for `C=CC(=O)N1CCC(c2cc(-c3ccc(Oc4ccccn4)c(F)c3)cc3cncnc23)C1` (stereo not drawn) [C160, 1-(3-(6-(3-fluoro-4-(pyridin-2-yloxy)phenyl)quinazolin-8-yl)pyrrolidin-1-yl)prop-2-en-1-one], more than 50%.
Same read-out and setting: for `C=CC(=O)N1CCC(c2cc(-c3ccc(C(=O)Nc4cc(C#N)ccn4)cc3)n3cnccc23)C1` (stereo not drawn) [C161, 4-(5-(1-acryloylpyrrolidin-3-yl)pyrrolo[1,2-c]pyrimidin-7-yl)-N-(4-cyanopyridin-2-yl)benzamide] the value was more than 50%; for `C=CC(=O)N1CCC(c2cc(-c3ccc(C(=O)Nc4cc(OC)ccn4)cc3)n3cnccc23)C1` (stereo not drawn) [C162, 4-(5-(1-acryloylpyrrolidin-3-yl)pyrrolo[1,2-c]pyrimidin-7-yl)-N-(4-methoxypyridin-2-yl)benzamide], less than 50%; for `C=CC(=O)N1CCC(c2cc(-c3ccc(C(=O)Nc4cc(C5CC5)ccn4)cc3)n3cnccc23)C1` (stereo not drawn) [C164, 4-(5-(1-acryloylpyrrolidin-3-yl)pyrrolo[1,2-c]pyrimidin-7-yl)-N-(4-cyclopropylpyridin-2-yl)benzamide], more than 50%.
`C=CC(=O)N1CCC(c2cc(-c3ccc(C(=O)Nc4cc(C5CC5)ccn4)c(F)c3)n3cnccc23)C1` (stereo not drawn) [C165, 4-(5-(1-acryloylpyrrolidin-3-yl)pyrrolo[1,2-c]pyrimidin-7-yl)-N-(4-cyclopropylpyridin-2-yl)-2-fluorobenzamide]: the inhibition at 0.1 µM was less than 50%.
On the same count and under the same terms, the same measure for `C=CC(=O)Nc1cccc(-c2cc(-c3ccc(Oc4ccccn4)cc3OC)cc3cnc(N)nc23)c1` [C166, N-(3-(2-amino-6-(2-methoxy-4-(pyridin-2-yloxy)phenyl)quinazolin-8-yl)phenyl)acrylamide]: more than 50%.
On the same count and under the same terms, for `C=CC(=O)N1CCC(c2cc(-c3ccc(Oc4ccccn4)c(OC)c3)n3cnccc23)C1` (stereo not drawn) [C167, 1-(3-(7-(3-methoxy-4-(pyridin-2-yloxy)phenyl)pyrrolo[1,2-c]pyrimidin-5-yl)pyrrolidin-1-yl)prop-2-en-1-one] the value was less than 50%; for `C=CC(=O)N1CCC(c2cc(-c3ccc(Oc4ccccn4)cc3OC)cc3cnc(N)nc23)C1` (stereo not drawn) [C168, 1-(3-(2-amino-6-(2-methoxy-4-(pyridin-2-yloxy)phenyl)quinazolin-8-yl)pyrrolidin-1-yl)prop-2-en-1-one], less than 50%.
On the same count and under the same terms, the same measure for `C=CC(=O)N1CCC(c2cc(-c3ccc(Oc4ccccn4)cc3OC)n3cnccc23)C1` (stereo not drawn) [C169, 1-(3-(7-(2-methoxy-4-(pyridin-2-yloxy)phenyl)pyrrolo[1,2-c]pyrimidin-5-yl)pyrrolidin-1-yl)prop-2-en-1-one]: less than 50%.

The same assay, now with this note: series of concentrations; GraphPad Prism 5.
Turning to `C=CC(=O)Nc1cccc(-c2cc(-c3ccc(C(=O)Nc4cc(C(F)(F)F)ccn4)cc3)cc3cncnc23)c1` [C137, 4-(8-(3-acrylamidophenyl)quinazolin-6-yl)-N-(4-(trifluoromethyl)pyridin-2-yl)benzamide], the IC50 (commonly the concentration needed to halve the response being measured) is less than 100 nM.
The same measure, in the same setting: the same measure for `C=CC(=O)Nc1cccc(-c2cc(-c3ccc(C(=O)Nc4cc(C5CC5)ccn4)cc3F)cc3cncnc23)c1` [C153, 4-(8-(3-acrylamidophenyl)quinazolin-6-yl)-N-(4-cyclopropylpyridin-2-yl)-3-fluorobenzamide]: less than 100 nM; for `C=CC(=O)Nc1cccc(-c2cc(-c3ccc(Oc4ccccn4)cc3F)cc3cnc(N)nc23)c1` [C157, N-(3-(2-amino-6-(2-fluoro-4-(pyridin-2-yloxy)phenyl)quinazolin-8-yl)phenyl)acrylamide]: less than 100 nM; for `C=CC(=O)Nc1cccc(-c2cc(-c3ccc(Oc4ccccn4)c(F)c3)cc3cnc(N)nc23)c1` [C158, N-(3-(2-amino-6-(3-fluoro-4-(pyridin-2-yloxy)phenyl)quinazolin-8-yl)phenyl)acrylamide]: less than 100 nM.
Same read-out and setting: the same measure for `C=CC(=O)N1CCC(c2cc(-c3ccc(C(=O)Nc4cc(C#N)ccn4)cc3)n3cnccc23)C1` (stereo not drawn) [C161, 4-(5-(1-acryloylpyrrolidin-3-yl)pyrrolo[1,2-c]pyrimidin-7-yl)-N-(4-cyanopyridin-2-yl)benzamide]: less than 100 nM.
Take `C=CC(=O)Nc1cccc(-c2cc(-c3ccc(Oc4ccccn4)cc3OC)cc3cnc(N)nc23)c1` [C166, N-(3-(2-amino-6-(2-methoxy-4-(pyridin-2-yloxy)phenyl)quinazolin-8-yl)phenyl)acrylamide]: the IC50 was less than 100 nM.
